Molecular target: T1, hGPR120 (Homo sapiens, UniProt Q5NUL3)
T1 construct: expressed in transfected cells; host or cells: CHO-K1
T1 sequence (Q5NUL3 1-361): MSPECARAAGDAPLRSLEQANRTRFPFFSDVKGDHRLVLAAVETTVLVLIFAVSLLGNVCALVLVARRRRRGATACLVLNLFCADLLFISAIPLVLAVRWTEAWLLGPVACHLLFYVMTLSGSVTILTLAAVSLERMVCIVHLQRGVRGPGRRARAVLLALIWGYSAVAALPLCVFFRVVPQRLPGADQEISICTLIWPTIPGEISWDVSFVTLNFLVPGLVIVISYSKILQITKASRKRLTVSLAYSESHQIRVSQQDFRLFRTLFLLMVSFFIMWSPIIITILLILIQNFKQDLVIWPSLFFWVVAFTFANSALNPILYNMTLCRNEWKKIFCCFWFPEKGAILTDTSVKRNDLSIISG
Assay: Measurement of Activity of GPR120 Agonist (Cell-Based Assay), Calcium 5 dye fluorescence
Conditions: CHO-K1 cells expressing Ga16 and hGPR120
In short: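 Agonist-evoked calcium signal, expressed as percent relative to DMSO-only wells, read at 485/525 nm after serial-dilution addition (0.5% DMSO final). Cells were hGPR120/Gα16 CHO-K1, seeded 18 h earlier and dye-loaded for 1 h at 37°C.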

| Structure (SMILES) | EC50 [nM] |
| --- | --- |
| N#Cc1ccc2c(ccn2-c2cc(F)c(OCCCC(=O)O)c(F)c2)c1 [Example 469, 4-[4-(5-cyanoindol-1-yl)-2,6-difluoro-phenoxy]butanoic acid] | 2000 to 20000 |
| O=C(O)CCCOc1c(F)cc(-n2ccc3ccc(OC4CCC4)cc32)cc1F [Example 476, 4-[4-[6-(cyclobutoxy)indol-1-yl]-2,6-difluoro-phenoxy]butanoic acid] | < 200 |
| O=C(O)CCCOc1c(F)cc(-n2ccc3cc(OC4CCC4)ccc32)cc1F [Example 477, 4-[4-[5-(cyclobutoxy)indol-1-yl]-2,6-difluoro-phenoxy]butanoic acid] | 200 to 2000 |
| COc1cccc2c1ccn2-c1cc(F)c(OCCCC(=O)O)c(F)c1 [Example 478, 4-[2,6-difluoro-4-(4-methoxyindol-1-yl)phenoxy]butanoic acid] | 200 to 2000 |
| COc1cccc2ccn(-c3cc(F)c(OCCCC(=O)O)c(F)c3)c12 [Example 479, 4-[2,6-difluoro-4-(7-methoxyindol-1-yl)phenoxy]butanoic acid] | < 200 |
| O=C(O)CCCOc1c(F)cc(-n2ncc3ccc(OC4CCC4)cc32)cc1F [Example 482, 4-[4-[6-(cyclobutoxy)indazol-1-yl]-2,6-difluoro-phenoxy]butanoic acid] | < 200 |
| O=C(O)CCCOc1c(F)cc(-n2ncc3ccc(OC4CCC4)cc32)cc1Cl [Example 483, 4-[2-chloro-4-[6-(cyclobutoxy)indazol-1-yl]-6-fluoro-phenoxy]butanoic acid] | < 200 |
| Cc1cc(OC2CCC2)nc(-c2cc(F)c(N(C)CCCC(=O)O)c(F)c2)n1 [Example 484, 4-[4-[4-(cyclobutoxy)-6-methyl-pyrimidin-2-yl]-2,6-difluoro-N-methyl-anilino]butanoic acid] | < 200 |
| CN(CCCC(=O)O)c1c(F)cc(-c2nccc(OC3CCC3)n2)cc1F [Example 485, 4-[4-[4-(cyclobutoxy)pyrimidin-2-yl]-2,6-difluoro-N-methyl-anilino]butanoic acid] | < 200 |
| CN(CCCC(=O)O)c1c(F)cc(-c2csc(OC3CCC3)n2)cc1F [Example 486, 4-[4-[2-(cyclobutoxy)thiazol-4-yl]-2,6-difluoro-N-methyl-anilino]butanoic acid] | < 200 |
| O=C(O)CC1CCN(c2c(F)cc(-n3ncc4ccc(OC5CCC5)cc43)cc2F)CC1 [Example 487, 2-[1-[4-[6-(cyclobutoxy)indazol-1-yl]-2,6-difluoro-phenyl]-4-piperidyl]acetic acid] | 200 to 2000 |
| CN(CCCC(=O)O)c1c(F)cc(-c2cncc(OC3CCC3)n2)cc1F [Example 488, 4-[4-[6-(cyclobutoxy)pyrazin-2-yl]-2,6-difluoro-N-methyl-anilino]butanoic acid] | < 200 |
| CN(CCCC(=O)O)c1c(F)cc(-n2ncc3ccc(OC4CCC4)cc32)cc1F [Example 492, 4-[4-[6-(cyclobutoxy)indazol-1-yl]-2,6-difluoro-N-methyl-anilino]butanoic acid] | < 200 |
| O=C(O)CC1CCN(c2c(F)cc(-n3ncc4ccc(OC5CCC5)cc43)cc2F)C1 (stereo not shown) [Example 494, 2-[1-[4-[6-(cyclobutoxy)indazol-1-yl]-2,6-difluoro-phenyl]pyrrolidin-3-yl]acetic acid] | 200 to 2000 |
| CCCOc1cncc(-c2cc(F)c(N3CCC(CC(=O)O)C3)c(F)c2)n1 (stereo not shown) [Example 495, 2-{1-[2,6-difluoro-4-(6-propoxy-pyrazin-2-yl)phenyl]pyrrolidin-3-yl}acetic acid] | < 200 |
| CC(C)COc1cncc(-c2cc(F)c(N3CCC(CC(=O)O)C3)c(F)c2)n1 (stereo not shown) [Example 496, 2-{1-[2,6-difluoro-4-(6-isobutoxy-pyrazin-2-yl)phenyl]pyrrolidin-3-yl}acetic acid] | 200 to 2000 |
| O=C(O)CC1CCN(c2c(F)cc(-c3cncc(OC4CCCC4)n3)cc2F)C1 (stereo not shown) [Example 497, 2-{1-[2,6-difluoro-4-(6-cyclopentoxy-pyrazin-2-yl)phenyl]pyrrolidin-3-yl}acetic acid] | 200 to 2000 |
| CCCCOc1cncc(-c2cc(F)c(N3CCC(CC(=O)O)C3)c(F)c2)n1 (stereo not shown) [Example 498, 2-{1-[2,6-difluoro-4-(6-butoxy-pyrazin-2-yl)phenyl]pyrrolidin-3-yl}acetic acid] | < 200 |
| CC(C)COc1ccnc(-c2cc(F)c(N3CCC(CC(=O)O)C3)c(F)c2)n1 (stereo not shown) [Example 502, 2-{1-[2,6-difluoro-4-(4-isobutoxy-pyrimidin-2-yl)phenyl]pyrrolidin-3-yl}acetic acid] | 200 to 2000 |
| O=C(O)CC1CCN(c2c(F)cc(-c3cncc(NC4CCCC4)n3)cc2F)C1 (stereo not shown) [Example 504, 2-{1-[2,6-difluoro-4-(6-cyclopentylamino-pyrazin-2-yl)phenyl]pyrrolidin-3-yl}acetic acid] | 200 to 2000 |

Results, then the compound that gave them:

| EC50 [nM] | Structure (SMILES) |
| --- | --- |
| < 200 | CN(CCCC(=O)O)c1c(F)cc(-c2cccc(NCC3CC3)c2)cc1F [Example 466, 4-[4-[3-(cyclopropylmethylamino)phenyl]-2,6-difluoro-N-methyl-anilino]butanoic acid] |
| 200 to 2000 | CN(CCCC(=O)O)c1c(F)cc(-c2cccc(N3CCCC3)n2)cc1F [Example 467, 4-[2,6-difluoro-N-methyl-4-(6-pyrrolidin-1-yl-2-pyridyl)anilino]butanoic acid] |
| < 200 | COc1ccc2c(ccn2-c2cc(F)c(OCCCC(=O)O)c(F)c2)c1 [Example 468, 4-[2,6-difluoro-4-(5-methoxyindol-1-yl)phenoxy]butanoic acid] |
| 200 to 2000 | CN(CCCC(=O)O)c1c(F)cc(-c2occc2COCC2CC2)cc1F [Example 470, 4-[4-[3-(cyclopropylmethoxymethyl)-2-furyl]-2,6-difluoro-N-methyl-anilino]butanoic acid] |
| < 200 | O=C(O)CCCOc1c(F)cc(-n2ccc3c(F)cccc32)cc1F [Example 471, 4-[2,6-difluoro-4-(4-fluoroindol-1-yl)phenoxy]butanoic acid] |
| < 200 | O=C(O)CCCOc1c(F)cc(-n2ccc3cccc(Cl)c32)cc1F [Example 472, 4-[4-(7-chloroindol-1-yl)-2,6-difluoro-phenoxy]butanoic acid] |
| 200 to 2000 | CN(CCCC(=O)O)c1c(F)cc(-c2ccc(COCC3CC3)o2)cc1F [Example 473, 4-[4-[5-(cyclopropylmethoxymethyl)-2-furyl]-2,6-difluoro-N-methyl-anilino]butanoic acid] |
| < 200 | O=C(O)CCCOc1c(F)cc(-n2ccc3ccc(OCC4CC4)cc32)cc1F [Example 474, 4-[4-[6-(cyclopropylmethoxy)indol-1-yl]-2,6-difluoro-phenoxy]butanoic acid] |
| < 200 | CN(CCCC(=O)O)c1c(F)cc(-n2ccc3cccc(Cl)c32)cc1F [Example 475, 4-[4-(7-chloroindol-1-yl)-2,6-difluoro-N-methyl-anilino]butanoic acid] |
| 2000 to 20000 | COCc1ccc2c(cnn2-c2cc(F)c(OCCCC(=O)O)c(F)c2)c1 [Example 480, 4-[2,6-difluoro-4-[5-(methoxymethyl)indazol-1-yl]phenoxy]butanoic acid] |
| 2000 to 20000 | O=C(O)CC1CCN(c2c(F)cc(-n3ccc4cccc(Cl)c43)cc2F)CC1 [Example 481, 2-[1-[4-(7-chloroindol-1-yl)-2,6-difluoro-phenyl]-4-piperidyl]acetic acid] |
| < 200 | Cc1cc(OCC2CC2)nc(-c2cc(F)c(N(C)CCCC(=O)O)c(F)c2)n1 [Example 489, 4-[4-[4-(cyclopropylmethoxy)-6-methyl-pyrimidin-2-yl]-2,6-difluoro-N-methyl-anilino]butanoic acid] |
| < 200 | CN(CCCC(=O)O)c1c(F)cc(-c2nccc(OCC3CC3)n2)cc1F [Example 490, 4-[4-[4-(cyclopropylmethoxy)pyrimidin-2-yl]-2,6-difluoro-N-methyl-anilino]butanoic acid] |
| < 200 | CN(CCCC(=O)O)c1c(F)cc(-c2cncc(OCC3CC3)n2)cc1F [Example 491, 4-[4-[6-(cyclopropylmethoxy)pyrazin-2-yl]-2,6-difluoro-N-methyl-anilino]butanoic acid] |
| < 200 | CN(CCCC(=O)O)c1c(F)cc(-c2cccc(OCC3CC3)n2)cc1F [Example 493, 4-[4-[6-(cyclopropylmethoxy)-2-pyridyl]-2,6-difluoro-N-methyl-anilino]butanoic acid] |
| < 200 | CCCOc1ccnc(-c2cc(F)c(N3CCC(CC(=O)O)C3)c(F)c2)n1 (stereo not shown) [Example 499, 2-{1-[2,6-difluoro-4-(4-propoxy-pyrimidin-2-yl)phenyl]pyrrolidin-3-yl}acetic acid] |
| < 200 | CC(C)Oc1ccnc(-c2cc(F)c(N3CCC(CC(=O)O)C3)c(F)c2)n1 (stereo not shown) [Example 500, 2-{1-[2,6-difluoro-4-(4-isopropoxy-pyrimidin-2-yl)phenyl]pyrrolidin-3-yl}acetic acid] |
| < 200 | CCOc1ccnc(-c2cc(F)c(N3CCC(CC(=O)O)C3)c(F)c2)n1 (stereo not shown) [Example 501, 2-{1-[2,6-difluoro-4-(4-ethoxy-pyrimidin-2-yl)phenyl]pyrrolidin-3-yl}acetic acid] |
| 200 to 2000 | CC(C)CNc1cncc(-c2cc(F)c(N3CCC(CC(=O)O)C3)c(F)c2)n1 (stereo not shown) [Example 503, 2-{1-[2,6-difluoro-4-(6-isobutylamino-pyrazin-2-yl)phenyl]pyrrolidin-3-yl}acetic acid] |
| 200 to 2000 | CC(C)Nc1cncc(-c2cc(F)c(N3CCC(CC(=O)O)C3)c(F)c2)n1 (stereo not shown) [Example 505, 2-{1-[2,6-difluoro-4-(6-isopropylamino-pyrazin-2-yl)phenyl]pyrrolidin-3-yl}acetic acid] |

Source: US11261186B2, “Biaryl derivative as GPR120 agonist” (LG CHEM, LTD., priority 2014, dated 2022)
